From patent US5053006A, “Method for the permanent occlusion of arteries” (priority 1990, dated 1991)

Columns and labels:
fibrinogen = test: Immunofluorescence study of thrombus composition, fibrinogen; parameters: species or system rat
Protocol: Following incubation with primary antibody for one hour, FITC-conjugated goat anti-mouse IgG and goat anti-mouse IgG antibodies (Sigma Chemical Co., St. Louis, Mo.) were used as secondary antibodies for anti-fibrinogen and anti-Factor VIII, respectively. The sections were observed by epi-illumination with a Nikon Microphot-FX microscope.

middle cerebral artery = test: Argon laser photothrombotic occlusion of middle cerebral artery (Example 1); assay type: in vivo, rat (male Wistar)
From the text: Male Wistar rats, each weighing 280 to 330 gm, were anesthetized with 1.5% halothane and maintained on a 70:30 mixture of nitrous oxide and oxygen delivered by a closely fitting Mylar face mask (Watson et al., J. Neurosurg., 66:748-754, 1987, the disclosure of which is hereby incorporated by reference and relied upon). After separation of the temporal musculature, the middle cerebral artery was exposed via a small subtemporal craniectomy produced by a high-speed drill under an operating microscope; the dura was left intact. The common carotid arteries were exposed bilaterally by a midline incision extending from the mental process to the sternal notch; the sternocleidomastoid muscle was then retracted laterally to expose the underlying artery. Bleeding from the operative site was controlled with pressure and Gelfoam. The animal was then prepared for irradiation by filling the surgical cavity with saline, just submerging the exposed blood vessel. The saline solution was kept clear by frequent suction and irrigation. The femoral arteries were exposed by bilateral inguinal incisions and were prepared for irradiation in a fashion similar to that described above.
Thrombus development and subsequent occlusion of the middle cerebral artery were easily observed during irradiation owing to wall transparency. The irradiated segment emitted a bright orange fluorescence (as viewed through an interference filter which rejected the 514.5 nm argon line); this was attributed to rose bengal uptake by red blood cell membranes and binding to plasma proteins such as albumin. As the irradiation proceeded, the fluorescence became yellowish and less intense owing to the accumulation of platelets and exclusion of red blood cells from the developing thrombus. Complete occlusion was signaled by exclusion of red blood cells from the arterial segments both distal and proximal to the irradiated portion, leaving a single colorless segment 7 to 10 arterial diameters in length.
Ultrastructural studies were carried out at either 30 minutes or 7 days following irradiation. Animals were perfused transcardially with 0.9% sodium chloride solution followed by 2% paraformaldehyde and 2.5% glutaraldehyde in a 0.1 M sodium phosphate buffer. Perfusion pressure was monitored throughout the procedure and was maintained at 100 mm Hg. After perfusion fixation, the femoral and common carotid arteries were isolated and placed in fixative for an additional 2 hours. To isolate the middle cerebral artery, the brain was first removed from the cranial vault and placed in fixative for a 2-hour period. Next, the whole brain was placed in phosphate-buffered 1% osmium tetroxide for 2 minutes.
The blood vessels were then postfixed in Millonig's phosphate-buffered 1% osmium tetroxide for 1 hour. Specimens chosen for transmission electron microscopy were dehydrated in ethanol and propylene oxide and embedded in Poly-Bed 812 as previously described (Dietrich et al., J Neuropathol. Exp. Neurol., 43:72-83, 1984). Sections 1 μm thick were cut with glass knives on a Sorvall ultra-microtome and stained with toluidine blue. To characterize the occlusive material more completely, ultra-thin sections stained with uranyl acetate and lead citrate were examined with a Zeiss EM-10C electron microscope. The blood vessels chosen for scanning electron microscopy analysis were examined under a dissecting microscope and cut longitudinally with a scalpel blade to expose the luminal surface. The blood vessels were then dehydrated in graded ethanols and placed in Freon. The tissue was critical-point dried, coated with gold, and examined and photographed with a JEOL JSM-35C scanning electron microscope.

corneal blood vessels = assay type: in vivo, New Zealand albino rabbit
From the text: Both corneal and limbal epithelia, along with the conjunctival epithelium 2-3 mm beyond the limbus, were removed from New Zealand albino rabbit eyes by n-heptanol debridement and surgical scraping (Huang et al., Ophthalmology, 95:228-235, 1988, the disclosure of which is hereby incorporated by reference and relied upon). The denuded corneas were healed by the remaining conjunctival epithelium within 9 to 12 days, of which 65% became extensively vascularized two to three weeks after healing. Sixteen corneas with persistent neovascularization of 20 months duration were subjected to photothrombotic treatment.
Occlusion of corneal blood vessels was achieved by intravenous injection of the rose bengal solution at a dosage of 40 mg/kg body weight followed by irradiation of the blood vessels with an argon green laser beam (514.5 nm in wavelength) set at a power of 130 mW, beam spot size of 63 μm in diameter, and duration of 0.2 second. During the irradiation, the corneal surface was rinsed with a balanced salt solution maintained at 37° C. to ensure the efficacy of photothrombosis. The laser beam was applied to the limbus at the arborization point of each feeder vessel. In 12 corneas, the blood vessels on the upper half of the cornea were photothrombosed and those on the lower half were left untreated and used as an internal control. In the remaining four corneas, the blood vessels on the entire cornea were treated. Each blood vessel was occluded within 10 consecutive shots of irradiation. For all corneas, the treatment was completed within 30 minutes after initial injection of rose bengal solution. After laser irradiation, topical antibiotics and steroids were applied for two days. This treatment was similar to that described in Watson et al., Lasers Surg. Med., 7:127, 1987.
External ocular examinations were performed to identify changes on the ocular surface before and after photothrombosis. Surface smoothness was examined by routine slitlamp biomicroscopy. External photographs were taken to document corneal clarity and regression of the vessels.
Occlusion of the corneal blood vessels and the duration of occlusion were further studied by routine corneal fluorescein angiography using an intravenous injection of 1 ml of 10 mg/ml of sodium fluorescein. Photographs and angiograms were taken with a Zeiss surgical microscope. Baseline angiography was performed two to three days before photothrombosis to avoid possible photosensitizing effects from the fluorescein used for angiography. Follow-up angiograms were taken on the scheduled dates to document the occlusive effect and its duration. Late phase fluorescein angiograms (5 minutes after injection) were chosen for comparisons. After occlusion was confirmed by angiography, the rabbits were sacrificed on the prescheduled date and corneal buttons were obtained and subjected to epithelial differentiation studies. The total follow-up duration was 18 weeks.

O=C([O-])c1c(Cl)c(Cl)c(Cl)c(Cl)c1-c1c2cc(I)c(=O)c(I)c-2oc2c(I)c([O-])c(I)cc12.[Na+].[Na+] [rose bengal]
fibrinogen in photoinduced MCA thrombi (fibrinogen): abundance | length of colorless occluded segment (middle cerebral artery; complete occlusion): 7 to 10 arterial diameters | recanalization on saline bolus (middle cerebral artery; five minutes after completion of irradiation): no recanalization was observed | energy fluence (middle cerebral artery; rat, in vivo): ~3.5 kJ/sq cm | total energy deposited (middle cerebral artery; rat, in vivo): approximately 1 J | thrombus composition (middle cerebral artery; ultrastructural analysis): composed primarily of aggregated platelets | irradiation time to effect complete occlusion (middle cerebral artery; very low incident intensity): ≤ 3 min | consecutive shots to occlude each blood vessel (corneal blood vessels; 40 mg/kg i.v., 130 mW, 0.2 second): ≤ 10 shots | dye leakage in angiograms, treated areas (corneal blood vessels; follow-up angiograms): free of dye leakage | regression of occluded corneal blood vessels (corneal blood vessels; four days after treatment): gradually regressed | epithelial breakdown (corneal blood vessels; rabbit, in vivo): No epithelial breakdown was observed | persistence of hemorrhagic spots (corneal blood vessels; rabbit, in vivo): two to three | retention of rose bengal in corneas (corneal blood vessels; rabbit, in vivo): all 16 corneas were clear of retained rose bengal | occlusion of treated vessels (corneal blood vessels; two corneas, 18 weeks): all treated vessels remained occluded without recanalization, and no new vessel growth elsewhere was observed
